System: PTP1B in MCF-7 cell lysate
Experiment: Lysate labeling by western blot, MCF-7
Design: species or system human
Conditions: 25–500 µM, 4 h, MCF-7 lysate 4 mg/mL
Experimental: To verify a consistent labeling profile by TMR‐PO, we tested additional PTP1B‐containing mammalian lysates. […] Therefore, we attempted to identify conditions where more intense labeling is noticeable. […] Increasing reaction time led to a proportional increase in biotin‐signal overlapping with the PTP1B band. […] A 4‐h incubation was chosen for the following experiments for ease of protocol and due to the robust labeling observed.
In that respect, following a 4‐h incubation time, we tested increasing concentrations of bio‐PO up to 500 µM to further increase the labeling efficiency. […] This highlights that labeling is also consistent with the abundance of PTP1B in these cell lines, which was measured by quantitative proteomics (Figure 5b). […]
For western blot analysis, samples resolved by SDS-PAGE were transferred to a polyvinylidene difluoride (PVDF) membrane using a Trans-Blot Turbo (Bio-Rad) semi dry blotting system according to the manufacturer`s instructions. […] The HRP signal was detected using the Pierce ECL Western Blotting Substrate (ThermoFisher Scientific) and imaged using the ChemiDoc (Bio-Rad) imaging system. […] Biotin was probed against using Streptavidin-horse radish peroxidase (HRP) conjugate (Thermo Fisher Scientific, N100) at a 1:5000 dilution for 1 hour at room temperature and the HRP signal was detected as mentioned above. […]

Row | SMILES | labeling of MCF-7 lysate by small molecule control SM-PO | labeling of MCF-7 lysate by small molecule control SM-PN
1 | C#CP(=O)(O)Oc1ccc(CCNC(=O)CCCC[C@@H]2SC[C@@H]3NC(=O)N[C@@H]32)cc1 [SM-PO, 4-(2-biotinamidoethyl)phenyl ethynylphosphonic acid monoester] | a band with increasing intensity was apparent in the biotin signal upon concentration increase | –
2 | C#CP(=O)(O)Nc1ccc(CCNC(=O)CCCC[C@@H]2SC[C@@H]3NC(=O)N[C@@H]32)cc1 [SM-PN, N-(4-(2-biotinamidoethyl)phenyl)-P-ethynylphosphonamidic acid] | – | No labeling was observed

Source: paper PMC12970513, “Unsaturated Phosphorus Electrophiles to Probe Protein Tyrosine Phosphatases” (Angewandte Chemie (International Ed. in English), 2026)
